The source of these data is patent US20240423998A1, “METHODS OF TREATING AGITATION AND OTHER DEMENTIA-ASSOCIATED BEHAVIORAL SYMPTOMS” (WOOLSEY PHARMACEUTICALS, INC., priority 2021, published 2024).

Counter-ions that a name gives are not always drawn.

For data set [1] the following is noted: in vivo, metabolite; cited from earlier work.
The subject of data set [2] is agitation in patients with Alzheimer's Dementia (AD). The experiment in a line: Clinical trial of oral fasudil in reducing agitation in patients with Alzheimer's Dementia (CMAI score). The data set is classed as in vivo, human. The procedure: All the patients were treated for 6 weeks with 90 mg per day (30 mg TID) and a subset of patients was treated an additional 6 weeks with 180 mg per day (60 mg TID). […] A variety of assessments were conducted at baseline and at the end of treatment, including the NPI-Q and the CMAI.
Two baseline thresholds were set, and two analyses were done based on the two groupings that resulted. One threshold was based on the agitation/aggression domain of the NPI-Q and the other based on the CMAI score.
The first selection was based on NPI-Q score of ≥4.
The second selection required a baseline CMAI score of ≥20 and this yielded a 13-patient subgroup, having a mean baseline CMAI score of 34.4. […] All the patients selected using the NPI-Q agitation/aggression domain score of ≥4 were also included in this subgroup.
The analysis looked at the CMAI score prior to treatment and compared it to the last day of treatment (6 weeks for the 10 patients on the low dose and 12 weeks for the 3 patients on the high dose).

Data set [3] relates to mice. The settings on record: six-month old mice, 10 mg/kg oral gavage once a day for 30 days; reduction indicates anxiety; cited from earlier work.

For `O=S(=O)(c1cccc2c(O)nccc12)N1CCCNCC1` [M3], in data set [1], the half-life entry is recorded as “about 8 hours”.

With `O=S(=O)(c1cccc2cnccc12)N1CCCNCC1` [fasudil HCl hemihydrate, Hexahydro-1-(5-isoquinolinesulfonyl)-1H-1,4-diazepine monohydrochloride hemihydrate], the “tolerability of treatment regimens” value in data set [2] (nineteen AD patients, 90 mg per day (30 mg TID) 6 weeks and 180 mg per day (60 mg TID) additional 6 weeks) is “well tolerated”.

On to `O=S(=O)(c1cccc2cnccc12)N1CCCNCC1` [fasudil], for which the “amount of time spent in the open arms of the maze” value in data set [3] is on record as “significantly reduced”. Also, the “difference in mean CMAI score, baseline vs end of treatment” value in data set [2] (six patients with baseline NPI-Q score >=4, 90 mg per day (30 mg TID) for 6 weeks) was 22.3. The “mean CMAI score at the end of treatment” value in data set [2] (six patients with baseline NPI-Q score >=4, 90 mg per day (30 mg TID) for 6 weeks, mean baseline CMAI 45.3) was found to be 23.0; in data set [2] (thirteen patients with baseline CMAI score >=20, 6 weeks at 90 mg per day (10 patients) or additional 6 weeks at 180 mg per day (3 patients), mean baseline CMAI 34.4) it was 21.8. Moreover, in data set [2] (thirteen patients with baseline CMAI score >=20, 6 weeks at 90 mg per day (10 patients) or additional 6 weeks at 180 mg per day (3 patients)), the “difference in mean CMAI score, prior to treatment vs end of treatment” value came to 12.6.
